{"source": "patent US10822317B2", "about": "“Methods and compositions for wound healing” (QBiotics Limited, priority 2013, dated 2020)", "tested_on": "mouse stroma of human SK-Mel-28 xenografts", "test": "Gene expression in mouse stroma of human tumour xenografts", "format": "in vivo", "conditions": "30 μg intratumoural", "protocol": "Mouse stroma in human tumour xenografts were obtained from mice in which the Sk-Mel-28 human melanoma cell line was injected subcutaneously into 2 sites on the flanks of each BALB/c FoxnInu mouse (2×10^6 cells/site) and allowed to grow to approximately 7 mm diameter. Each tumour was then injected with 50 μL of 20% propylene glycol containing 30 μg Compound 1 or with 50 µL of 20% propylene glycol. At different times after injection a mouse was euthanased and the tumours harvested, the skin covering removed, and the intact tumours stored at −80° C.\nRNA was extracted from 30 mg of frozen tumour or 1×10^7 cells using the QiagenRNeasyPlus Mini Kit, according to manufacturer's instructions, then quantitated with a NanoDrop instrument and integrity confirmed on denaturing agarose gels bearing a 1 kb DNA marker and stained with ethidium bromide.\nApproximately 500 ng of total unlabelled RNA was adjusted to a final volume of 11 μL with nuclease-free water. The RNA was incubated with 9 μL of the reverse transcriptase master mix (1 μL of T7 Oligo (dT) Primer, 2 μL of 10× first strand buffer, 4 μL of dNTP mix, 1 μL of RNase inhibitor and 1 μL of ArrayScript) at 42° C. for 2 hr. This was followed by the second strand cDNA synthesis step which involved a further incubation at 16° C. for 2 hr with 80 µL of the second strand master mix (63 μL nuclease-free water, 10 μL 10× second strand buffer, 4 μL dNTP mix, […] and 1 μL RNase H). The cDNA was purified by filtering through a cDNA Filter Cartridge with 250 μL of cDNA binding buffer and washing with 500 μL of the wash buffer provided in the kit. Purified cDNA was eluted with 20 μL of 55° C. nuclease-free water. Each cDNA sample was incubated with 7.5 μL of the IVT master mix (2.5 μL of T7 10× reaction buffer, 2.5 μL of T7 enzyme mix and 2.5 μL biotin-NTP mix) at 37° C. for 16 hr. The reaction was stopped with the addition of 75 μL of nuclease-free water to each cRNA sample. The biotinylated, amplified RNA was purified by filtering the cRNA samples through cRNA Filter Cartridges with 350 μL of cRNA binding buffer and 250 μL of 100% ethanol mixed together prior to loading onto the filters. The cRNA filter cartridges with attached RNA were then washed with 650 μL of wash buffer before eluting purified cRNA with 200 μL of 55° C. nuclease-free water.\nThe cRNA samples were heated at 65° C. for 5 min and collected by pulse centrifugation. After heating at 65 degrees for 5 min, approximately 750 ng of the cRNA sample was aliquoted into separate tubes to which were added ˜5 μL of RNase-free water and 10 μL of Hyb Mix. Approximately 15 μL of the prepared cRNA mix was loaded onto the Illumina Expression BeadChips. Subsequent steps of hybridisation and washing were carried out according to the Whole-Genome Gene Expression Direct Hybridization Assay Guide supplied by Illumina.\nThe Human HT-12 v4 Expression BeadChips cover more than 47,000 transcripts and known splice variants across the human transcriptome. The MouseRef-8 v2.0 Expression BeadChips cover approximately 25,600 well-annotated RefSeq (Reference Sequence) transcripts, comprising over 19,000 unique genes.\nBeadChips were read by the iScan System, and transferred via GenomeStudio into GeneSpring GX v12.5 (Agilent Technologies, Santa Clara, Calif., USA). The expression values were normalized using quantile normalization with default settings. The entities were filtered based on the detection score calculated by GenomeStudio where p≤0.05 was considered significant.\nExpression data using mouse gene-specific microarrays were performed for 2-3 individual human SK-Mel-28 xenografts treated by intratumoural injection with 30 μg of Compound 1, along with 3 vehicle-only sites, the data combined. Only those mouse genes for which expression in the Compound 1 treated site was >2 times higher or >2 times lower than in the vehicle-injected site were examined for relevance to wound healing."}
{"smiles": "CC=C(C)C(=O)OC1C(C)C2(O)C(C3OC3(CO)C(O)C3(O)C(=O)C(C)=CC32)C2C(C)(C)C12OC(=O)C(C)CC", "note": "(stereo not drawn) [Compound 1, 12-tigloyl-13-(2-methylbutanoyl)-6,7-epoxy-4,5,9,12,13,20-hexahydroxy-1-tigliaen-3-one]", "values": [{"measurement": "Acta1: Direction of regulation", "setting": "0.5 h", "result": "Up"}, {"measurement": "Tgm2: Direction of regulation", "setting": "0.5 h", "result": "Up"}, {"measurement": "Thbs2: Direction of regulation", "setting": "0.5 h", "result": "Down"}, {"measurement": "Thbs2: Fold change in expression", "setting": "0.5 h, Down", "result": 3.98, "unit": "fold"}, {"measurement": "Acta1: Fold change in expression", "setting": "0.5 h, Up", "result": 9.3, "unit": "fold"}, {"measurement": "Tgm2: Fold change in expression", "setting": "0.5 h, Up", "result": 2.67, "unit": "fold"}, {"measurement": "Col17a1: Direction of regulation", "setting": "1 h", "result": "Up"}, {"measurement": "Itga7: Direction of regulation", "setting": "1 h", "result": "Up"}, {"measurement": "Krt5: Direction of regulation", "setting": "1 h", "result": "Up"}, {"measurement": "Krt10: Direction of regulation", "setting": "1 h", "result": "Up"}, {"measurement": "Krt15: Direction of regulation", "setting": "1 h", "result": "Up"}, {"measurement": "Krt17: Direction of regulation", "setting": "1 h", "result": "Up"}, {"measurement": "Krtdap: Direction of regulation", "setting": "1 h", "result": "Up"}, {"measurement": "LCe1a1: Direction of regulation", "setting": "1 h", "result": "Up"}, {"measurement": "Lce1a2: Direction of regulation", "setting": "1 h", "result": "Up"}, {"measurement": "Lce1b: Direction of regulation", "setting": "1 h", "result": "Up"}, {"measurement": "Lce1m: Direction of regulation", "setting": "1 h", "result": "Up"}, {"measurement": "Lce1d: Direction of regulation", "setting": "1 h", "result": "Up"}, {"measurement": "Lor: Direction of regulation", "setting": "1 h", "result": "Up"}, {"measurement": "krt14: Direction of regulation", "setting": "1 h", "result": "Up"}, {"measurement": "Col17a1: Fold change in expression", "setting": "1 h, Up", "result": 2.7, "unit": "fold"}, {"measurement": "Itga7: Fold change in expression", "setting": "1 h, Up", "result": 2.1, "unit": "fold"}, {"measurement": "Krt5: Fold change in expression", "setting": "1 h, Up", "result": 2.8, "unit": "fold"}, {"measurement": "Krt10: Fold change in expression", "setting": "1 h, Up", "result": 7, "unit": "fold"}, {"measurement": "Krt15: Fold change in expression", "setting": "1 h, Up", "result": 2.3, "unit": "fold"}, {"measurement": "Krt17: Fold change in expression", "setting": "1 h, Up", "result": 2.9, "unit": "fold"}, {"measurement": "Krtdap: Fold change in expression", "setting": "1 h, Up", "result": 7, "unit": "fold"}, {"measurement": "LCe1a1: Fold change in expression", "setting": "1 h, Up", "result": 2.7, "unit": "fold"}, {"measurement": "Lce1a2: Fold change in expression", "setting": "1 h, Up", "result": 3, "unit": "fold"}, {"measurement": "Lce1b: Fold change in expression", "setting": "1 h, Up", "result": 4.8, "unit": "fold"}, {"measurement": "Lce1m: Fold change in expression", "setting": "1 h, Up", "result": 4.9, "unit": "fold"}, {"measurement": "Lce1d: Fold change in expression", "setting": "1 h, Up", "result": 3.3, "unit": "fold"}, {"measurement": "Lor: Fold change in expression", "setting": "1 h, Up", "result": 11.6, "unit": "fold"}, {"measurement": "krt14: Fold change in expression", "setting": "1 h, Up", "result": 9.4, "unit": "fold"}, {"measurement": "Col17a1: Direction of regulation", "setting": "2 h", "result": "Up"}, {"measurement": "Krt10: Direction of regulation", "setting": "2 h", "result": "Up"}, {"measurement": "Lor: Direction of regulation", "setting": "2 h", "result": "Up"}, {"measurement": "krt14: Direction of regulation", "setting": "2 h", "result": "Up"}, {"measurement": "Col17a1: Fold change in expression", "setting": "2 h, Up", "result": 2, "unit": "fold"}, {"measurement": "Krt10: Fold change in expression", "setting": "2 h, Up", "result": 2.4, "unit": "fold"}, {"measurement": "Lor: Fold change in expression", "setting": "2 h, Up", "result": 2.8, "unit": "fold"}, {"measurement": "krt14: Fold change in expression", "setting": "2 h, Up", "result": 5.6, "unit": "fold"}, {"measurement": "Acta1: Direction of regulation", "setting": "4 h", "result": "Up"}, {"measurement": "CXCL1: Direction of regulation", "setting": "4 h", "result": "Up"}, {"measurement": "Col17a1: Direction of regulation", "setting": "4 h", "result": "Up"}, {"measurement": "Egr1: Direction of regulation", "setting": "4 h", "result": "Up"}, {"measurement": "Krt10: Direction of regulation", "setting": "4 h", "result": "Up"}, {"measurement": "Krt17: Direction of regulation", "setting": "4 h", "result": "Up"}, {"measurement": "Krt71: Direction of regulation", "setting": "4 h", "result": "Up"}, {"measurement": "Krtdap: Direction of regulation", "setting": "4 h", "result": "Up"}, {"measurement": "LCe1a1: Direction of regulation", "setting": "4 h", "result": "Up"}, {"measurement": "Tgm2: Direction of regulation", "setting": "4 h", "result": "Down"}, {"measurement": "krt14: Direction of regulation", "setting": "4 h", "result": "Up"}, {"measurement": "Tgm2: Fold change in expression", "setting": "4 h, Down", "result": 2, "unit": "fold"}, {"measurement": "Acta1: Fold change in expression", "setting": "4 h, Up", "result": 30.3, "unit": "fold"}, {"measurement": "CXCL1: Fold change in expression", "setting": "4 h, Up", "result": 12.1, "unit": "fold"}, {"measurement": "Col17a1: Fold change in expression", "setting": "4 h, Up", "result": 3.2, "unit": "fold"}, {"measurement": "Egr1: Fold change in expression", "setting": "4 h, Up", "result": 4.7, "unit": "fold"}, {"measurement": "Krt10: Fold change in expression", "setting": "4 h, Up", "result": 8.6, "unit": "fold"}, {"measurement": "Krt17: Fold change in expression", "setting": "4 h, Up", "result": 10, "unit": "fold"}, {"measurement": "Krt71: Fold change in expression", "setting": "4 h, Up", "result": 3.2, "unit": "fold"}, {"measurement": "Krtdap: Fold change in expression", "setting": "4 h, Up", "result": 3.8, "unit": "fold"}, {"measurement": "LCe1a1: Fold change in expression", "setting": "4 h, Up", "result": 2.8, "unit": "fold"}, {"measurement": "krt14: Fold change in expression", "setting": "4 h, Up", "result": 9.7, "unit": "fold"}, {"measurement": "Acta1: Direction of regulation", "setting": "8 h", "result": "Up"}, {"measurement": "Egr1: Direction of regulation", "setting": "8 h", "result": "Up"}, {"measurement": "Krt10: Direction of regulation", "setting": "8 h", "result": "Down"}, {"measurement": "Krt17: Direction of regulation", "setting": "8 h", "result": "Down"}, {"measurement": "Krt10: Fold change in expression", "setting": "8 h, Down", "result": 2.1, "unit": "fold"}, {"measurement": "Krt17: Fold change in expression", "setting": "8 h, Down", "result": 2, "unit": "fold"}, {"measurement": "Acta1: Fold change in expression", "setting": "8 h, Up", "result": 8.5, "unit": "fold"}, {"measurement": "Egr1: Fold change in expression", "setting": "8 h, Up", "result": 5.34, "unit": "fold"}]}
